Results: US6479435B1, “Diaryl ethers and processes for their preparation and herbicidal and desiccant compositions containing them” (ISK Americas Incorporated, priority 1997, dated 2002)

Experiments:
Type in all cases: in vivo
[1] = tested on: sicklepod (Cassia obtusifolia, CASOB); assay: Pre-emerge greenhouse herbicide test, phytotoxicity rating; conditions: Senna obtusifolia, pre-emergence, 336 h, 14 days after application, rating scale 0-100; for pest or weed control at 125 g/ha: Rate 125 g al/ha; for pest or weed control at 500 g/ha: Rate 500 g al/ha
In short: (§1)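 Seeds sown in sandy loam mix one day before track-sprayer application of compounds in acetone at 125–1000 g ai/ha (187 l/ha), then surface-watered to incorporate and bottom-watered. Visual rating 14 days after application on a 0–100 scale (0 = no damage, 100 = all plants dead).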

[2] = tested on: barnyardgrass (Echinochloa crusgalli, ECHCG); assay: as above; conditions: Echinochloa crus-galli, pre-emergence, 336 h, 14 days after application, rating scale 0-100; for pest or weed control at 125 g/ha: Rate 125 g al/ha; for pest or weed control at 500 g/ha: Rate 500 g al/ha
In short: as §1

[3] = tested on: lambsquarters (Chenopodium album, CHEAL); assay: as above; conditions: Chenopodium album, pre-emergence, 336 h, 14 days after application, rating scale 0-100; for pest or weed control at 125 g/ha: Rate 125 g al/ha; for pest or weed control at 500 g/ha: Rate 500 g al/ha
In short: as §1

[4] = tested on: green foxtail (Setaria viridis, SETVI); assay: as above; conditions: Setaria viridis, pre-emergence, 336 h, 14 days after application, rating scale 0-100; for pest or weed control at 125 g/ha: Rate 125 g al/ha; for pest or weed control at 500 g/ha: Rate 500 g al/ha
In short: as §1

[5] = tested on: redroot pigweed (Amaranthus retroflexus, AMARE); assay: as above; conditions: Amaranthus retroflexus, pre-emergence, 336 h, 14 days after application, rating scale 0-100; for pest or weed control at 125 g/ha: Rate 125 g al/ha; for pest or weed control at 500 g/ha: Rate 500 g al/ha
In short: as §1

[6] = tested on: velvetleaf (Abutilon theophrasti, ABUTH); assay: as above; conditions: Abutilon theophrasti, pre-emergence, 336 h, 14 days after application, rating scale 0-100; for pest or weed control at 125 g/ha: Rate 125 g al/ha; for pest or weed control at 500 g/ha: Rate 500 g al/ha
In short: as §1

[7] = tested on: large crabgrass (Digitaria sanguinalis, DIGSA); assay: as above; conditions: Digitaria sanguinalis, pre-emergence, 336 h, 14 days after application, rating scale 0-100; for pest or weed control at 125 g/ha: Rate 125 g al/ha; for pest or weed control at 500 g/ha: Rate 500 g al/ha
In short: as §1

[8] = tested on: Johnsongrass (Sorghum halepense, SORHA); assay: as above; conditions: Sorghum halepense, pre-emergence, 336 h, 14 days after application, rating scale 0-100; for pest or weed control at 125 g/ha: Rate 125 g al/ha; for pest or weed control at 500 g/ha: Rate 500 g al/ha
In short: as §1

[9] = tested on: ivyleaf morningglory (Ipomoea hederacea, IPOHE); assay: as above; conditions: Ipomoea, pre-emergence, 336 h, 14 days after application, rating scale 0-100; for pest or weed control at 125 g/ha: Rate 125 g al/ha; for pest or weed control at 500 g/ha: Rate 500 g al/ha
In short: as §1

[10] = tested on: sicklepod (Cassia obtusifolia, CASOB); assay: Post-emerge greenhouse herbicide test, phytotoxicity rating; conditions: Senna obtusifolia, post-emergence, 336 h, 14 days after application, scale 0-100; for pest or weed control at 63 g/ha: rate 63 g ai/ha; for pest or weed control at 500 g/ha: rate 500 g ai/ha
In short: (§2)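 Compounds in acetone with 0.25% v/v non-ionic surfactant were track-sprayed at 187 l/ha over plants at the 2-3 leaf stage, at 63 to 1000 g ai/ha. Pots were bottom-watered. Injury was scored visually 14 days later on a 0-100 scale, where 0 is no damage and 100 is complete plant death.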

[11] = tested on: lambsquarters (Chenopodium album, CHEAL); assay: as above; conditions: Chenopodium album, post-emergence, 336 h, 14 days after application, scale 0-100; for pest or weed control at 63 g/ha: rate 63 g ai/ha; for pest or weed control at 500 g/ha: rate 500 g ai/ha
In short: as §2

[12] = tested on: green foxtail (Setaria viridis, SETVI); assay: as above; conditions: Setaria viridis, post-emergence, 336 h, 14 days after application, scale 0-100; for pest or weed control at 63 g/ha: rate 63 g ai/ha; for pest or weed control at 500 g/ha: rate 500 g ai/ha
In short: as §2

[13] = tested on: redroot pigweed (Amaranthus retroflexus, AMARE); assay: as above; conditions: Amaranthus retroflexus, post-emergence, 336 h, 14 days after application, scale 0-100; for pest or weed control at 63 g/ha: rate 63 g ai/ha; for pest or weed control at 500 g/ha: rate 500 g ai/ha
In short: as §2

[14] = tested on: large crabgrass (Digitaria sanguinalis, DIGSA); assay: as above; conditions: Digitaria sanguinalis, post-emergence, 336 h, 14 days after application, scale 0-100; for pest or weed control at 63 g/ha: rate 63 g ai/ha; for pest or weed control at 500 g/ha: rate 500 g ai/ha
In short: as §2

[15] = tested on: ivyleaf morningglory (Ipomoea hederacea, IPOHE); assay: as above; conditions: Ipomoea, post-emergence, 336 h, 14 days after application, scale 0-100; for pest or weed control at 63 g/ha: rate 63 g ai/ha; for pest or weed control at 500 g/ha: rate 500 g ai/ha
In short: as §2

Nn1c(C(F)(F)F)cc(=O)n(-c2cc(Oc3nccc(Cl)n3)c(Cl)cc2F)c1=O [Compound 9-17, 1-Amino-3-[4-chloro-2-fluoro-5-(4-chloro-2-pyrimidyloxy)phenyl]-6-trifluoromethyl-1,2,3,4-tetrahydropyrimidine-2,4-dione]
pest or weed control at 125 g/ha [1]: 20%
pest or weed control at 500 g/ha [1]: 70%
pest or weed control at 125 g/ha [2]: 20%
pest or weed control at 500 g/ha [2]: 100%
pest or weed control at 125 g/ha [3]: 100%
pest or weed control at 500 g/ha [3]: 100%
pest or weed control at 125 g/ha [4]: 90%
pest or weed control at 500 g/ha [4]: 100%
pest or weed control at 125 g/ha [5]: 100%
pest or weed control at 500 g/ha [5]: 100%
pest or weed control at 125 g/ha [6]: 100%
pest or weed control at 500 g/ha [6]: 100%
pest or weed control at 125 g/ha [7]: 30%
pest or weed control at 500 g/ha [7]: 100%
pest or weed control at 125 g/ha [8]: 30%
pest or weed control at 500 g/ha [8]: 90%
pest or weed control at 125 g/ha [9]: 20%
pest or weed control at 500 g/ha [9]: 100%
pest or weed control at 63 g/ha [10]: 0%
pest or weed control at 500 g/ha [10]: 0%
pest or weed control at 63 g/ha [11]: 80%
pest or weed control at 500 g/ha [11]: 90%
pest or weed control at 63 g/ha [12]: 10%
pest or weed control at 500 g/ha [12]: 10%
pest or weed control at 63 g/ha [13]: 95%
pest or weed control at 500 g/ha [13]: 95%
pest or weed control at 63 g/ha [14]: 10%
pest or weed control at 500 g/ha [14]: 10%
pest or weed control at 63 g/ha [15]: 100%
pest or weed control at 500 g/ha [15]: 95%

Nn1c(C(F)(F)F)cc(=S)n(-c2cc(Oc3ccc(Cl)cn3)c(Cl)cc2F)c1=O [Compound 9-28, 1-amino-3-[4-chloro-2-fluoro-5-(5-chloro-2-pyridyloxy)phenyl]-6-trifluoromethyl-1,2,3,4tetrahydro-2-oxo-4-thioxopyrimidine]
pest or weed control at 125 g/ha [1]: 50%
pest or weed control at 500 g/ha [1]: 50%
pest or weed control at 125 g/ha [2]: 20%
pest or weed control at 500 g/ha [2]: 80%
pest or weed control at 125 g/ha [3]: 100%
pest or weed control at 500 g/ha [3]: 100%
pest or weed control at 125 g/ha [4]: 100%
pest or weed control at 500 g/ha [4]: 100%
pest or weed control at 125 g/ha [5]: 100%
pest or weed control at 500 g/ha [5]: 100%
pest or weed control at 125 g/ha [6]: 100%
pest or weed control at 500 g/ha [6]: 100%
pest or weed control at 125 g/ha [7]: 70%
pest or weed control at 500 g/ha [7]: 100%
pest or weed control at 125 g/ha [8]: 20%
pest or weed control at 500 g/ha [8]: 80%
pest or weed control at 125 g/ha [9]: 40%
pest or weed control at 500 g/ha [9]: 70%
pest or weed control at 63 g/ha [10]: 10%
pest or weed control at 500 g/ha [10]: 50%
pest or weed control at 63 g/ha [11]: 80%
pest or weed control at 500 g/ha [11]: 100%
pest or weed control at 63 g/ha [12]: 25%
pest or weed control at 500 g/ha [12]: 50%
pest or weed control at 63 g/ha [13]: 90%
pest or weed control at 500 g/ha [13]: 100%
pest or weed control at 63 g/ha [14]: 0%
pest or weed control at 500 g/ha [14]: 0%
pest or weed control at 63 g/ha [15]: 95%
pest or weed control at 500 g/ha [15]: 100%

N#Cc1ccc(Oc2cc(-n3c(=O)cc(C(F)(F)F)n(N)c3=O)c(F)cc2Cl)nc1 [Compound 9-10, 1-Amino-3-[4-chloro-2-fluoro-5-(5-cyano-2-pyridyloxy)phenyl]-6-trifluoromethyl-1,2,3,4-tetrahydropyrimidine-2,4-dione]
pest or weed control at 125 g/ha [1]: 100%
pest or weed control at 500 g/ha [1]: 100%
pest or weed control at 125 g/ha [2]: 90%
pest or weed control at 500 g/ha [2]: 100%
pest or weed control at 125 g/ha [3]: 100%
pest or weed control at 500 g/ha [3]: 100%
pest or weed control at 125 g/ha [4]: 100%
pest or weed control at 500 g/ha [4]: 100%
pest or weed control at 125 g/ha [5]: 100%
pest or weed control at 500 g/ha [5]: 100%
pest or weed control at 125 g/ha [6]: 100%
pest or weed control at 500 g/ha [6]: 100%
pest or weed control at 125 g/ha [7]: 90%
pest or weed control at 500 g/ha [7]: 100%
pest or weed control at 125 g/ha [8]: 95%
pest or weed control at 500 g/ha [8]: 100%
pest or weed control at 125 g/ha [9]: 100%
pest or weed control at 500 g/ha [9]: 100%
pest or weed control at 63 g/ha [10]: 40%
pest or weed control at 500 g/ha [10]: 50%
pest or weed control at 63 g/ha [11]: 100%
pest or weed control at 500 g/ha [11]: 100%
pest or weed control at 63 g/ha [12]: 20%
pest or weed control at 500 g/ha [12]: 70%
pest or weed control at 63 g/ha [13]: 100%
pest or weed control at 500 g/ha [13]: 80%
pest or weed control at 63 g/ha [14]: 10%
pest or weed control at 500 g/ha [14]: 20%
pest or weed control at 63 g/ha [15]: 100%
pest or weed control at 500 g/ha [15]: 100%
